Measured values reported in article PMC3071989 (Clinical cancer research : an official journal of the …, 2010).

Assays:
Pgp [1] = target: T1, Pgp (Homo sapiens, UniProt P08183); assay: Rhodamine 123 efflux from CD56+ mononuclear cells of patients; assay type: cell-based
ABCG2 = conditions: compared with Pgp; cited from earlier work
MRP1 = conditions: cited from earlier work
Pgp [2] = target: T1, Pgp; assay: 99mTc-sestamibi scanning before and after tariquidar; assay type: in vivo; conditions: after tariquidar 150 mg vs baseline
[3] = Docetaxel plasma pharmacokinetics with and without tariquidar; assay type: in vivo, human; conditions: docetaxel 40 mg/m2, tariquidar 150 mg
[4] = patients who receive weekly docetaxel; cited from earlier work

T1 sequence (P08183 whole entry): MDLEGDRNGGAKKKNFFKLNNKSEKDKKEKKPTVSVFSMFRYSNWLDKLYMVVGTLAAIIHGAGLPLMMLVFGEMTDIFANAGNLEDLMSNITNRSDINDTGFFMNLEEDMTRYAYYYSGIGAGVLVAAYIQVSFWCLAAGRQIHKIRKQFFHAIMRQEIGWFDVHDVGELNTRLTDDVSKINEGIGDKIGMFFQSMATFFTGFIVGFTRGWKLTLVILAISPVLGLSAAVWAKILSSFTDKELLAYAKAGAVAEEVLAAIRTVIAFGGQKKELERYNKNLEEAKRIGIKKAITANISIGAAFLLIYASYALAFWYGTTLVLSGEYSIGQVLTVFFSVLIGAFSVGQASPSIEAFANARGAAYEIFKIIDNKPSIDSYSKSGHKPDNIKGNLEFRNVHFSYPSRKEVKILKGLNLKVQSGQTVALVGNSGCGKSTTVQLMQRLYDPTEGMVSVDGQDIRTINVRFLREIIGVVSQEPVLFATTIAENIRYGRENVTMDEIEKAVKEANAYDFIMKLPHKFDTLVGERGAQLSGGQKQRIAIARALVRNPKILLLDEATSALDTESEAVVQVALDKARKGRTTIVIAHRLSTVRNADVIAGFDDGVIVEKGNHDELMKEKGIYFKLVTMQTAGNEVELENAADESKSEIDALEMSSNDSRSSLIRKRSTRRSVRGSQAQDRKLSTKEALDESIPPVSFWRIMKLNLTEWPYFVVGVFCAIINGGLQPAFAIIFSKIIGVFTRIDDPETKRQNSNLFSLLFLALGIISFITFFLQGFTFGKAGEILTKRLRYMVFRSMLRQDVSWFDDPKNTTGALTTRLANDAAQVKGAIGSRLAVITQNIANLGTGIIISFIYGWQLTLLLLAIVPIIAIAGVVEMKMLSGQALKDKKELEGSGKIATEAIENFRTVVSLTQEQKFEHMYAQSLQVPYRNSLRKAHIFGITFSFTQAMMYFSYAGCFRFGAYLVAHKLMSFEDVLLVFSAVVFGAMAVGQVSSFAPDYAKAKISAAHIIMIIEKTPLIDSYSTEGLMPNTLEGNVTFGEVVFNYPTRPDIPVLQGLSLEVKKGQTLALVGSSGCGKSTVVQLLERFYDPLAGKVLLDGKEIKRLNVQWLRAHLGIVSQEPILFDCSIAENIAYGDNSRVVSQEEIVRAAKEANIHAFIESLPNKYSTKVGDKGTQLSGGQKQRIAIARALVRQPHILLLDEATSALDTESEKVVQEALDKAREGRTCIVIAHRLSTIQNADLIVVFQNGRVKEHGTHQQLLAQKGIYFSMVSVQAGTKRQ

SMILES: COc1cc2c(cc1OC)CN(CCc1ccc(NC(=O)c3cc(OC)c(OC)cc3NC(=O)c3cnc4ccccc4c3)cc1)CC2 [tariquidar]
- rhodamine efflux from CD56+ cells compared to Pre levels (Pgp [1]; 24 h after start of tariquidar 150 mg IV infusion, 41 patients): significantly decreased
- inhibition of Pgp in circulating mononuclear cells (Pgp [1]; tariquidar 150 mg IV): complete inhibition
- inhibition of ABCG2-mediated resistance in vitro (ABCG2): higher concentrations are required to inhibit ABCG2
- inhibition of MRP1 (MRP1): does not inhibit
- change in sestamibi AUC, liver (Pgp [2]; P<0.001): statistically significant change
- change in sestamibi AUC, visualized tumor tissue (Pgp [2]; P<0.001): statistically significant change
- change in sestamibi AUC0-3, cardiac tissue (Pgp [2]; two-tailed Student's t-test): No statistically significant increase
- change in sestamibi AUC0-3, lung tissue (Pgp [2]; two-tailed Student's t-test): No statistically significant increase

SMILES: CC(=O)O[C@@]12CO[C@@H]1C[C@H](O)[C@@]1(C)C(=O)[C@H](O)C3=C(C)[C@@H](OC(=O)[C@H](O)[C@@H](NC(=O)OC(C)(C)C)c4ccccc4)C[C@@](O)([C@@H](OC(=O)c4ccccc4)[C@H]21)C3(C)C [docetaxel]
- docetaxel disposition, pairwise comparison with and without tariquidar ([3]; AUC0-24 and Cmax): no significant difference
- geometric mean ratio of docetaxel AUC0-24 (with tariquidar/without tariquidar) ([3]; 31 patients, plasma): 1.07 (95% CI: 0.922-1.25)
- geometric mean ratio of docetaxel Cmax (with tariquidar/without tariquidar) ([3]; 31 patients, plasma): 0.907 (95% CI: 0.697-1.18)
- epiphora secondary to canalicular stenosis, incidence [4]: 33-50%

SMILES: C/C=C/C[C@@H](C)C(=O)[C@H]1C(=O)N[C@@H](C(C)C)C(=O)N(C)CC(=O)N(C)[C@@H](CC(C)C)C(=O)N[C@@H](C(C)C)C(=O)N(C)[C@@H](CC(C)C)C(=O)N[C@@H](C)C(=O)N[C@H](C)C(=O)N(C)[C@@H](CC(C)C)C(=O)N(C)[C@@H](CC(C)C)C(=O)N(C)[C@@H](C(C)C)C(=O)N1C [valspodar]
- inhibition of Pgp-mediated rhodamine transport (Pgp [1]; exogenously added valspodar 3 μg/ml): fully inhibits
